From PMC2267855, “Site-directed mutagenesis of Arginine282 suggests how protons and peptides are co-transported by rabbit PepT1” (The International Journal of Biochemistry & Cell Biology, 2008)
Changes are numbered by the printed parent chain. Where a SMILES comes first, the peptide text is derived from it.

Columns and labels:
Type in all cases: cell-based, rabbit
R282D-PepT1 [1] = target: T1, R282D-PepT1 (Oryctolagus cuniculus, UniProt P36836, R282D); test: Apparent charge:peptide stoichiometry (two-electrode voltage clamp current / radiolabelled uptake), R282D-PepT1; details: R282D-PepT1, pHout 5.5, resting membrane potential
T1 construct: expressed in transfected cells; host or cells: Xenopus laevis oocytes injected with cRNA
T1 sequence (P36836 1-707 R282D): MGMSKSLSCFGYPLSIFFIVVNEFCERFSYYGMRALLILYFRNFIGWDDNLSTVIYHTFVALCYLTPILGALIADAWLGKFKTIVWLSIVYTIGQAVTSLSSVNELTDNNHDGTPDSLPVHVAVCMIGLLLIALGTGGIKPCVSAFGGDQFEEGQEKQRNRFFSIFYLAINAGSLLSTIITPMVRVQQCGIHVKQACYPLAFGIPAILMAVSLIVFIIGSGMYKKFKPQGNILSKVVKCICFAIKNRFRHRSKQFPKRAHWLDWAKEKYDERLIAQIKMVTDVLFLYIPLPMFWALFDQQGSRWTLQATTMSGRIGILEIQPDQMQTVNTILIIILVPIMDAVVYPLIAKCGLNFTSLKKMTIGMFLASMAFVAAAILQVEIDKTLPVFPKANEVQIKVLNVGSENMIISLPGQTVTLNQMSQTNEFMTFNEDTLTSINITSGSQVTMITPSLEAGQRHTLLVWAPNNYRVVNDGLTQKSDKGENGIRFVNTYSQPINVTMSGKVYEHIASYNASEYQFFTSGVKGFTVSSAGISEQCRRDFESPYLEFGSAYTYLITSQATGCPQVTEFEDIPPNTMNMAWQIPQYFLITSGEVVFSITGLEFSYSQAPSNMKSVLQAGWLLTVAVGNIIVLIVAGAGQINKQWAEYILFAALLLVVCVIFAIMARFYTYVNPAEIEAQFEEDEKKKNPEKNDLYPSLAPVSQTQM
Method: Measurements of membrane potential were made by impaling oocytes with a single glass microelectrode (Intra 767 amplifier, WPI, Stevenage, Hertfordshire, UK) perfused in uptake medium (as above) with or without 0.4 μM D-Phe-L-Gln (synthesised in house), 0.6 mM Gly-L-Gln (Sigma, Poole, UK) or 10 mM 4-aminobenzoic acid (4-AMBA, Sigma). Two-electrode voltage clamp (TEVC) was performed by placing oocytes in a 0.1 ml recording chamber and perfusing with uptake solution (pH 5.5 or 7.4) at a rate of 15 ml/min. Oocytes were impaled by two agarose-cushioned microelectrodes filled with 3 M KCl (0.5–2.0 MΩ) and voltage-clamped at −60 mV using a Geneclamp 500B amplifier and PCLAMP 8.1 software (Axon Instruments, CA, USA). The holding potential was stepped from −60 mV over the range of −150 to +50 mV in 10 mV steps, each pulse lasting 100 ms, and returning to −60 mV in between test voltage pulses. Typically traces were filtered at 1 kHz during recording and digitized at 0.5–5 kHz using the DigiData 1200 interface (Axon Instruments, CA, USA). All experiments were carried out at room temperature.
In order to calculate the apparent charge:substrate stoichiometry, the peptide induced current that was measured by two-electrode voltage clamp at the oocyte resting membrane potential was divided by the radiolabelled dipeptide uptake in oocytes from the same preparation. […]

R282H-PepT1 = target: T2, R282H-PepT1 (Oryctolagus cuniculus, UniProt P36836, R282H); test: Inhibition of [3H]-D-Phe-L-Gln uptake into Xenopus oocytes expressing R282H-PepT1 (competition, Ki); details: pHout 5.5, 0.4 μM [3H]-D-Phe-L-Gln
T2 construct: expressed in transfected cells; host or cells: Xenopus laevis oocytes injected with cRNA
T2 sequence (P36836 1-707 R282H): T1 sequence (P36836 1-707 R282D) with D282H
Method: (§1) Zero-trans uptake of [^3H]-D-Phe-L-Gln (17.4 Ci/mmole, custom synthesised, Cambridge Research Biochemicals, Stockton-on-Tees, UK) was performed as previously described ([Meredith, 2004]). Briefly, 5 oocytes were incubated in 100 μl of uptake medium (95 mM NaCl, 2 mM KCl, 1 mM CaCl2, 0.42 mM MgCl2, 10 mM Tris/Hepes pH 7.4 or Tris/Mes pH 5.5) with tracer (0.4 μM) [^3H]-D-Phe-L-Gln. After incubation, the oocytes were washed sequentially five times in 1 ml of ice-cold 120 mM NaCl solution, lysed individually with 100 μl 2% (w/v) SDS and liquid scintillation counted. As a control non-injected oocytes were also incubated in uptake medium with [^3H]-D-Phe-L-Gln as above.
(§2) The affinity of wild-type and mutant PepT1 were assessed by competition studies with 0.4 μM [^3H]-D-Phe-L-Gln and Gly-L-Gln present in the uptake medium in concentrations from 0 to 2 mM using the protocol above, and the Ki calculated using the method of [Deves and Boyd (1989)].

R282D-PepT1 [2] = target: T1, R282D-PepT1; test: Inhibition of [3H]-D-Phe-L-Gln uptake into Xenopus oocytes expressing R282D-PepT1 (competition, Ki); details: pHout 5.5, 0.4 μM [3H]-D-Phe-L-Gln
Method: as §1, §2

apparent stoichiometry (charge:peptide), normalised to wild-type 1:1 (R282D-PepT1 [1])	Ki (R282H-PepT1)	Ki (R282D-PepT1 [2])	SMILES
5	–	–	NC(=O)CC[C@H](NC(=O)[C@H](N)Cc1ccccc1)C(=O)O [D-Phe-L-Gln]
–	300 ± 150 µM	340 ± 270 µM	NCC(=O)N[C@@H](CCC(N)=O)C(=O)O [Gly-L-Gln] (H-Gly-Gln-OH)
